Here are results for three compounds from patent US20150118305A1, “COMPOSITIONS COMPRISING SULFORAPHANE OR A SULFORAPHANE PRECURSOR AND URSOLIC ACID” (Nutramax Laboratories, Inc., priority 2012, published 2015).

Experiment [1] deals with broccoli sprout-derived myrosinase. The experiment can be described thus: Consumption of glucoraphanin by myrosinase as a function of ascorbic acid concentration (Example 3). The experiment is classed as biochemical. To be noted: for glucoraphanin (GR) content of reaction mixture: 38° C. The protocol: About 250 mg of broccoli seed extract containing about 12% (w/w) glucoraphanin were subjected to hydrolysis by a fixed concentration of broccoli sprout-derived myrosinase in the presence of variable concentration of ascorbic acid, ranging from 0 to 600 μmoles/Liter. The reaction mixtures were thermostated at 38° C.; aliquots were withdrawn every 15 minutes for 60 minutes, and concentration of glucoraphanin determined chromatographically. The rate of glucoraphanin consumption was interpreted as the rate its conversion to sulforaphane. Graphical representation of glucoraphanin content reduction as a function of increasing ascorbic acid concentration results in a series of linear plots; the slopes of the linear regression lines reflect the rate of glucoraphanin consumption, in pmoles/minute. It is apparent that in the presence of 600 μmoles/Liter concentration of ascorbic acid, the reaction rate increased 13-fold relative to that which proceeded in the absence of modulatory effects of ascorbic acid.

For experiment [2], the system named is myrosinase. The experiment can be described thus: Conversion of glucoraphanin to sulforaphane in Simulated Intestinal Fluid (Example 5). Format: biochemical, broccoli. To be noted: 38° C., 0.25 to 1.00 mmol/Liter ascorbic acid, FIG. 4. On the procedure:
Simulated Intestinal Fluid (SIF) powder, a commercially supplied concentrate closely approximating the human intestinal content in terms of composition, pH and ionic strength, was used. The experiment utilized a USP Dissolution Apparatus 2 (paddles), where into six dissolution vessels 500 mL of Simulated Intestinal Fluid was dispensed, along with 150 mg of freeze-dried broccoli sprout powder as a source of myrosinase. […] Aliquots were withdrawn every 15 minutes, and assayed for sulforaphane.

For experiment [3], the system named is myrosinase. The experiment in a line: Equimolar conversion of glucoraphanin to sulforaphane, ascorbic acid modulating myrosinase activity (Example 4). The experiment is classed as biochemical. To be noted: Part 2; 250 mg broccoli seed extract. The protocol: A two-part experiment was conducted to further elucidate the role of ascorbic acid in modulating myrosinase activity. […] A control sample contained no ascorbic acid, and the enzymatic conversion proceeded unassisted by a co-factor. PART 1. […] PART 2. While keeping the amount of broccoli seed extract fixed at 250 mg, the concentration of ascorbic acid was varied from 0.4 mmol/Liter to 3.8 mmol/Liter.

Experiment [4] relates to matrix metalloproteinase-9 (MMP-9) gene expression. The experiment in a line: MMP-9 gene expression in PC3 cells by quantitative RT-PCR (Example 6). Format: cell-based. As to conditions: PC3, 24 hours. On the procedure:
The following study was conducted to determine the effect of the combination of sulforaphane and ursolic acid on matrix metalloproteinase-9 (MMP-9) gene expression. The MMP-9 gene encodes the protein that is known to degrade the extracellular matrix, which is the support system of cells. In prostate, colon, brain, and other cancers, MMP9 expression is increased, and this increase has been correlated with metastasis. A decrease in MMP-9 is favorable for these cancers.
In the study, the prostate cancer cell line PC3 was treated with DMSO (vehicle control), sulforaphane (SFN), ursolic acid (UA), or the combination of sulforaphane and ursolic acid, for 24 hours. Gene expression of MMP-9 was analyzed via quantitative RT-PCR. FIGS. 5a and 5b and FIG. C show the results of the study.
Two separate treatments were conducted. […] The following reductions in gene expression of MMP-9 were observed: (i) a 5% decrease with 1 μM SFN alone, (ii) a 31% decrease with 5 μg/mL UA alone, and (iii) a 40% decrease with the combination of 1 μM SFN and 5 μg/mL UA. […] The following reductions in gene expression of MMP-9 were observed: (i) a 13% decrease with 1 μM SFN alone, (ii) a 28% decrease with 5 μg/mL UA alone, and (iii) a 45% decrease with the combination of 1 μM SFN and 5 μg/mL UA.
The following reductions in gene expression of MMP-9 were observed: (i) a 39% decrease with 5 μM SFN alone, (ii) a 15% decrease with 10 μg/mL UA alone, and (iii) a 59% decrease with the combination of 5 μM SFN and 10 μg/mL UA.

The next experiment relates to heme oxygenase-1 (HO-1). To be noted: oral administration; mammary epithelium; cited from earlier work.
Experiment [5] has as its system NAD(P)H:quinine oxidoreductase (NQO1). As to conditions: oral administration; mammary epithelium; cited from earlier work.

Turning to `O=C1O[C@H]([C@@H](O)CO)C(O)=C1O` [Ascorbic Acid, ascorbic acid], the “Slope of linear regression (rate of glucoraphanin consumption)” value is -0.286 µmol/min in experiment [1] (50 μM ascorbic acid); -0.5622 µmol/min in experiment [1] (125 μM ascorbic acid); -0.4714 µmol/min in experiment [1] (250 μM Filtered ascorbic acid); -0.7901 µmol/min in experiment [1] (250 μM ascorbic acid); -1.007 µmol/min in experiment [1] (400 μM ascorbic acid); -1.2 µmol/min in experiment [1] (600 μM ascorbic acid). Also, the “glucoraphanin (GR) content of reaction mixture” value (“glucoraphanin (GR) content” for short) in experiment [1] (50 μM ascorbic acid, 0 min) is 93.36 µmol; in experiment [1] (50 μM ascorbic acid, 15 min), 89.20 µmol; in experiment [1] (50 μM ascorbic acid, 30 min), 84.24 µmol; in experiment [1] (50 μM ascorbic acid, 45 min), 80.30 µmol; in experiment [1] (50 μM ascorbic acid, 60 min), 76.36 µmol; in experiment [1] (125 μM ascorbic acid, 0 min), 93.36 µmol. The “glucoraphanin (GR) content” value in experiment [1] (125 μM ascorbic acid, 15 min) came out at 84.52 µmol; in experiment [1] (125 μM ascorbic acid, 30 min), 75.92 µmol; in experiment [1] (125 μM ascorbic acid, 45 min), 68.09 µmol; in experiment [1] (125 μM ascorbic acid, 60 min), 59.41 µmol; in experiment [1] (250 μM Filtered ascorbic acid, 0 min) it was 93.36 µmol; in experiment [1] (250 μM Filtered ascorbic acid, 15 min), 86.31 µmol. For the same compound, the “glucoraphanin (GR) content” value in experiment [1] (250 μM Filtered ascorbic acid, 30 min) was found to be 79.44 µmol; in experiment [1] (250 μM Filtered ascorbic acid, 45 min), 71.94 µmol; in experiment [1] (250 μM Filtered ascorbic acid, 60 min) it was 65.18 µmol; in experiment [1] (250 μM ascorbic acid, 0 min) it was 93.36 µmol; in experiment [1] (250 μM ascorbic acid, 15 min), 80.95 µmol; in experiment [1] (250 μM ascorbic acid, 30 min), 69.06 µmol. The “glucoraphanin (GR) content” value in experiment [1] (250 μM ascorbic acid, 45 min) came out at 57.63 µmol; in experiment [1] (250 μM ascorbic acid, 60 min), 45.76 µmol; in experiment [1] (400 μM ascorbic acid, 0 min), 93.36 µmol; in experiment [1] (400 μM ascorbic acid, 15 min) it was 78.32 µmol; in experiment [1] (400 μM ascorbic acid, 30 min) it was 62.78 µmol; in experiment [1] (400 μM ascorbic acid, 45 min) it was 47.67 µmol. Further, the “glucoraphanin (GR) content” value was found to be 33.15 µmol in experiment [1] (400 μM ascorbic acid, 60 min); 93.36 µmol in experiment [1] (600 μM ascorbic acid, 0 min); 75.02 µmol in experiment [1] (600 μM ascorbic acid, 15 min); 55.66 µmol in experiment [1] (600 μM ascorbic acid, 30 min); 37.50 µmol in experiment [1] (600 μM ascorbic acid, 45 min); 22.09 µmol in experiment [1] (600 μM ascorbic acid, 60 min). For the same compound, the “increase of reaction rate relative to absence of ascorbic acid” value in experiment [1] (600 μmoles/Liter ascorbic acid) stood at 13 fold. For the same compound, in the experiment with myrosinase [2], the “sulforaphane yield versus ascorbic acid concentration” value is “direct correlation between larger yield of sulforaphane and higher concentrations of ascorbic acid”. For the same compound, the “ascorbic acid concentration up to which myrosinase-promoted conversion increases apparently linearly, then levels off” value with myrosinase [3] is recorded as “about 2 mmol/L”.

`C[S+]([O-])CCCCN=C=S` (centres unmarked) [SFN, 1-isothiocyanato-4-methylsulfinylbutane]: the “decrease in gene expression of MMP-9” value was 5% in experiment [4] (1 μM SFN alone, Part 1 first treatment (FIG. 5a)); 13% in experiment [4] (1 μM SFN alone, Part 1 second treatment (FIG. 5b)); 39% in experiment [4] (5 μM SFN alone, Part 2 (FIG. 6)). Besides, the “elevated immunostaining of HO-1 enzyme” value with heme oxygenase-1 (HO-1) is given as 4 fold. In addition, the “increase in NQO1 enzymatic activity” value in experiment [5] is reported as 3 fold.

Consider `C[C@H]1[C@H](C)CC[C@]2(C(=O)O)CC[C@]3(C)C(=CC[C@@H]4[C@@]5(C)CC[C@H](O)C(C)(C)[C@@H]5CC[C@]43C)[C@H]12` [UA, (1S,2R,4aS,6aR,6aS,6bR,8aR,10S,12aR,14bS)-10-hydroxy-1,2,6a,6b,9,9,12a-heptamethyl-2,3,4,5,6,6a,7,8,8a,10,11,12,13,14b-tetradecahydro-1H-picene-4a-carboxylic acid], for which the “decrease in gene expression of MMP-9” value is listed as 31% in experiment [4] (5 μg/mL UA alone, Part 1 first treatment (FIG. 5a)); 28% in experiment [4] (5 μg/mL UA alone, Part 1 second treatment (FIG. 5b)); 15% in experiment [4] (10 μg/mL UA alone, Part 2 (FIG. 6)).
